Assay results published in BindingDB's records for doi:10.1021/jm9801760 (National Cancer Institute-Bethesda, 1998).

What was measured:
[1] = biological target: T1, Integrase (Human immunodeficiency virus 1, UniProt Q7ZJM1); test: Inhibitory concentration as 50% inhibition of HIV-1 integrase enzyme at strand transfer stage of DNA integration.
[2] = biological target: T1, Integrase; test: Inhibition of HIV-1 integrase enzyme at 3`- processing stage of DNA integration

T1 sequence (Q7ZJM1 whole entry): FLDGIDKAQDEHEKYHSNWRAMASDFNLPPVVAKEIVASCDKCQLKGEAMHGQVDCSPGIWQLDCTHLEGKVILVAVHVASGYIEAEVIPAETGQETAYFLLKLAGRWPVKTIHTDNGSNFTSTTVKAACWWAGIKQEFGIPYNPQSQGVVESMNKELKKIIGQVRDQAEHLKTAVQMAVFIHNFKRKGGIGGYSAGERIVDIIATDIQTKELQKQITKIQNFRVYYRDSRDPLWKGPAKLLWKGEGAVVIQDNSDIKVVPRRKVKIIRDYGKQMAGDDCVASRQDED

IC50 [1] | IC50 [2] | SMILES
0.9 µM | 0.6 µM | C=c1[nH]n(C(=O)c2ccccc2O)c(=O)c1=Cc1ccc(O)cc1 [2-(2-Hydroxy-benzoyl)-4-[1-(4-hydroxy-phenyl)-meth-(E)-ylidene]-5-methyl-2,4-dihydro-pyrazol-3-one]
> 293 µM | > 293 µM | C=c1[nH]n(C(=O)c2ccc(Cl)cc2)c(=O)c1=Cc1ccccc1O [2-(4-Chloro-benzoyl)-4-[1-(2-hydroxy-phenyl)-meth-(E)-ylidene]-5-methyl-2,4-dihydro-pyrazol-3-one]
0.6 µM | 0.8 µM | C=c1[nH]n(C(=O)c2ccccc2O)c(=O)c1=Cc1ccc(O)c(OC)c1 [2-(2-Hydroxy-benzoyl)-4-[1-(4-hydroxy-3-methoxy-phenyl)-meth-(E)-ylidene]-5-methyl-2,4-dihydro-pyrazol-3-one]
> 260 µM | > 260 µM | C=c1[nH]n(C(=O)c2ccc(Cl)cc2)c(=O)c1=Cc1ccc(OC)c(OC)c1 [2-(4-Chloro-benzoyl)-4-[1-(3,4-dimethoxy-phenyl)-meth-(E)-ylidene]-5-methyl-2,4-dihydro-pyrazol-3-one]
> 293 µM | > 293 µM | C=c1[nH]n(C(=O)c2ccc(Cl)cc2)c(=O)c1=Cc1cccc(O)c1 [2-(4-Chloro-benzoyl)-4-[1-(3-hydroxy-phenyl)-meth-(E)-ylidene]-5-methyl-2,4-dihydro-pyrazol-3-one]
> 293 µM | > 293 µM | C=c1[nH]n(C(=O)c2ccc(Cl)cc2)c(=O)c1=Cc1ccc(O)cc1
> 280 µM | > 280 µM | C=c1[nH]n(C(=O)c2ccc(Cl)cc2)c(=O)c1=Cc1ccc(Cl)cc1 [2-(4-Chloro-benzoyl)-4-[1-(4-chloro-phenyl)-meth-(E)-ylidene]-5-methyl-2,4-dihydro-pyrazol-3-one]
 | 0.9 µM | C=c1[nH]n(C(=O)c2ccccc2O)c(=O)c1=Cc1ccc(OC)cc1
> 240 µM | > 240 µM | C=c1[nH]n(C(=O)c2ccc(Cl)cc2)c(=O)c1=Cc1cc(OC)c(OC)c(OC)c1 [2-(4-Chloro-benzoyl)-5-methyl-4-[1-(3,4,5-trimethoxy-phenyl)-meth-(E)-ylidene]-2,4-dihydro-pyrazol-3-one]
